28 compounds from patent publication US10654884B2 (Vitae Pharmaceuticals, Inc., priority 2014, dated 2020) can be followed below.

Experiment [1] deals with T1, human CD73 (Homo sapiens, UniProt P21589).
T1 construct: purchased R&D Systems 5795-EN-010
T1 sequence (P21589 27-549): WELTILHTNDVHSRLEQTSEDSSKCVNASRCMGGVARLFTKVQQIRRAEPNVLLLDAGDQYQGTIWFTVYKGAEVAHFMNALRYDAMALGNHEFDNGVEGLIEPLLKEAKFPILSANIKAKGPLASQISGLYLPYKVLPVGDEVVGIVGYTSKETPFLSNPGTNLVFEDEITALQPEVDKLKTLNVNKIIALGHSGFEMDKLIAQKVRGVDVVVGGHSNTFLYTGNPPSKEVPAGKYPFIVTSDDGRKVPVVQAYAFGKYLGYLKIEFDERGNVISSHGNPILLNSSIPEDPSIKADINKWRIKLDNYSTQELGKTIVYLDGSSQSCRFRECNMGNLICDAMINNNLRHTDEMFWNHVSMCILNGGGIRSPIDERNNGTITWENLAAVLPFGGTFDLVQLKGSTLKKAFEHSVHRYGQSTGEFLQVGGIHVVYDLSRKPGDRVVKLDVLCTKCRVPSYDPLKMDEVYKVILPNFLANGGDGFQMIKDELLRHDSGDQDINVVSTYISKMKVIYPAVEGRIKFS
In words: Inhibition of 5′-Nucleotidase Activity of CD73 (Assay 1). The note with it: human CD73 4 ng/ml, 50 μM CMP, 20 min at RT, malachite green readout; read-out: Assay 1: IC50, inhibition of 5′-nucleotidase activity of CD73. Type of experiment: biochemical. As to the method:
Inhibition of 5′-Nucleotidase Activity of CD73 (Assay 1)
Compounds of the present invention were tested for the ability to inhibit CD73 enzyme activity. Tested compounds were dissolved in DMSO (50× final concentration), and 3.2 μL of the solutions added to 96-well polystyrene plates. To these wells were added, 100 μL of human CD73 (R&D Systems Cat. No. 5795-EN-010) and 57 μL of cytidine-5′-monophosphate (CMP) solutions in assay buffer (25 mM Tris-HCl, pH 7.4, 0.005% Brij-35) were added to achieve final concentrations in the assay of 4 ng/ml CD73 and 50 μM of CMP. The assay mixture was incubated for 20 min at RT. The reaction was stopped by addition of 40 μL of malachite green reagent which was prepared by mixing together 10 ml 2M H2SO4, 2.5 ml of 15% ammonium molybdate and 0.2 ml of 11% Tween-20. The mixture was agitated vigorously for 10 min at RT, and absorbance at 620 nm was determined on a microplate spectrophotometer. […] The IC50 values were derived using a non-linear 4 parameter logistic model (XLFit software, IDBS) and correspond to the inflection points on dose-response curves.

Experiment [2] concerns the target T2, CD73 on U138 neuroglioma cells (Homo sapiens, UniProt P21589).
T2 construct: U138 neuroglioma cells, which express CD73 on their surface; endogenous in cells; host or cells: U138 neuroglioma cells (ATCC)
T2 sequence (P21589 27-549): T1 sequence (P21589 27-549)
The experiment in a line: Inhibition of Ecto-5′-Nucleotidase Activity in U138 Neuroglioma Cells (Assay 2). The experiment is classed as cell-based. The note with it: 50 μM CMP, 2 hr at 37° C., malachite green readout, read-out: Assay 2: IC50, inhibition of ecto-5′-nucleotidase activity in U138 neuroglioma cells. How it is done:
Inhibition of Ecto-5′-Nucleotidase Activity in U138 Neuroglioma Cells (Assay 2)
U138 cells were obtained from the American Type Culture Collection (ATCC) (Manassas, Va.), and cultured in complete growth media (DMEM, 10% FBS, 1 mM L-glutamine, 100 U penicillin-streptomycin) at 37° C., 5% CO2. The day before the experiment, cells were seeded at 2,500 cells/well in 100 μL of complete media into 96-well plates. Cells were washed twice with 200 μL of assay buffer (20 mM HEPES, pH 7.4, 137 mM NaCl, 5.4 mM KCl, 1.3 mM CaCl2, 4.2 mM NaHCO3, 1 mg/mL glucose) to remove residual inorganic phosphate. After washing, assays contained serial dilutions of test compounds and 50 μM of cytidine-5′-monophosphate (CMP) in a total volume of 200 μL of assay buffer, with a final DMSO concentration ≤0.1%. After 2 hr at 37° C., 5% CO2, 100 μL of supernatant was removed from the cells and the concentration of inorganic phosphate was determined using malachite green reagent. IC50 values for test compounds were determined from nonlinear regression fits of the data using XLfit (IDBS).

Regarding `CCCS(=O)(=O)[C@H](OC[C@H]1O[C@@H](n2cnc3c(N)nc(Cl)nc32)[C@H](O)[C@@H]1O)P(=O)(O)O` (single isomer, unassigned) [Example 12], the IC50 (in general, the concentration that inhibits the measured activity by half) in experiment [1] is under 100 nM; in experiment [2] it was 100 to 1000 nM.
`CC(C)CS(=O)(=O)[C@H](OC[C@H]1O[C@@H](n2cnc3c(N)nc(Cl)nc32)[C@H](O)[C@@H]1O)P(=O)(O)O` (single isomer, unassigned) [Example 13]: the IC50 in experiment [1] is under 100 nM; in experiment [2], 100 to 1000 nM.
With `CC(C)COC(=O)[C@H](OC[C@H]1O[C@@H](n2cnc3c(N)nc(Cl)nc32)[C@H](O)[C@@H]1O)P(=O)(O)O` (single isomer, unassigned) [Example 14], the IC50 in experiment [1] and in experiment [2] was under 100 nM throughout.
For `CC(C)COC(=O)[C@@H](OC[C@H]1O[C@@H](n2cnc3c(N)nc(Cl)nc32)[C@H](O)[C@@H]1O)P(=O)(O)O` (single isomer, unassigned) [Example 14a], the concentration for half-maximal inhibition (IC50) in experiment [1] and in experiment [2] was 100 to 1000 nM in each case.
For `CC(C)(C)OC(=O)[C@H](OC[C@H]1O[C@@H](n2cnc3c(N)nc(Cl)nc32)[C@H](O)[C@@H]1O)P(=O)(O)O` (single isomer, unassigned) [Example 15], the IC50 in experiment [1] and in experiment [2] was under 100 nM throughout.
Consider `CC(C)(C)OC(=O)[C@@H](OC[C@H]1O[C@@H](n2cnc3c(N)nc(Cl)nc32)[C@H](O)[C@@H]1O)P(=O)(O)O` (single isomer, unassigned) [Example 15a], for which the IC50 in experiment [1] and in experiment [2] was 100 to 1000 nM throughout.
`Nc1nc(Cl)nc2c1ncn2[C@@H]1O[C@H](CO[C@@H](C(=O)OCc2ccccc2)P(=O)(O)O)[C@@H](O)[C@H]1O` (single isomer, unassigned) [Example 16]: the IC50 in experiment [1] and in experiment [2] was under 100 nM each time.
As for `CC(C)CNC(=O)[C@H](OC[C@H]1O[C@@H](n2cnc3c(N)nc(Cl)nc32)[C@H](O)[C@@H]1O)P(=O)(O)O` (single isomer, unassigned) [Example 17], the 50% inhibitory concentration (IC50) in experiment [1] and in experiment [2] was under 100 nM each time.
Regarding `CC(C)CNC(=O)[C@@H](OC[C@H]1O[C@@H](n2cnc3c(N)nc(Cl)nc32)[C@H](O)[C@@H]1O)P(=O)(O)O` (single isomer, unassigned) [Example 17a], the concentration for half-maximal inhibition (IC50) in experiment [1] is 100 to 1000 nM; in experiment [2], under 100 nM.
In the case of `CCNC(=O)[C@H](OC[C@H]1O[C@@H](n2cnc3c(N)nc(Cl)nc32)[C@H](O)[C@@H]1O)P(=O)(O)O` (single isomer, unassigned) [Example 18], the 50% inhibitory concentration (IC50) in experiment [1] was under 100 nM; in experiment [2], 100 to 1000 nM.
With `CCNC(=O)[C@@H](OC[C@H]1O[C@@H](n2cnc3c(N)nc(Cl)nc32)[C@H](O)[C@@H]1O)P(=O)(O)O` (single isomer, unassigned) [Example 18a], the half-inhibitory concentration (IC50) is 100 to 1000 nM in experiment [1] and under 100 nM in experiment [2].
The corresponding values for `CC(C)(C)NC(=O)[C@H](OC[C@H]1O[C@@H](n2cnc3c(N)nc(Cl)nc32)[C@H](O)[C@@H]1O)P(=O)(O)O` (single isomer, unassigned) [Example 19] are under 100 nM and under 100 nM.
Taken in the same sequence, the figures for `CC(C)(C)NC(=O)[C@@H](OC[C@H]1O[C@@H](n2cnc3c(N)nc(Cl)nc32)[C@H](O)[C@@H]1O)P(=O)(O)O` (single isomer, unassigned) [Example 19a] were 100 to 1000 nM and 100 to 1000 nM.
Taken in the same sequence, the figures for `Cc1nnc(C(OC[C@H]2O[C@@H](n3cnc4c(N)nc(Cl)nc43)[C@H](O)[C@@H]2O)P(=O)(O)O)o1` (single isomer, unassigned) [Example 21] were under 100 nM and 100 to 1000 nM.
On to `Cc1nnc(C(OC[C@H]2O[C@@H](n3cnc4c(N)nc(Cl)nc43)[C@H](O)[C@@H]2O)P(=O)(O)O)o1` (single isomer, unassigned) [Example 21a], for which the figures for the IC50 in experiment [1] and in experiment [2] were 100 to 1000 nM and over 1000 nM, respectively.
For the compound `CCOC(=O)[C@H](OC[C@H]1O[C@@H](n2cnc3c(NC4CC4)nc(Cl)nc32)[C@H](O)[C@@H]1O)P(=O)(O)O` (single isomer, unassigned) [Example 22], the IC50 in experiment [1] and in experiment [2] was under 100 nM each time.
In the case of `CCOC(=O)[C@@H](OC[C@H]1O[C@@H](n2cnc3c(NC4CC4)nc(Cl)nc32)[C@H](O)[C@@H]1O)P(=O)(O)O` (single isomer, unassigned) [Example 22a], the IC50 in experiment [1] and in experiment [2] was 100 to 1000 nM throughout.
On to `CCOC(=O)[C@H](OC[C@H]1O[C@@H](n2cnc3c(NC)nc(Cl)nc32)[C@H](O)[C@@H]1O)P(=O)(O)O` (single isomer, unassigned) [Example 23], for which the IC50 in experiment [1] and in experiment [2] was under 100 nM in each case.
`CCOC(=O)[C@@H](OC[C@H]1O[C@@H](n2cnc3c(NC)nc(Cl)nc32)[C@H](O)[C@@H]1O)P(=O)(O)O` (single isomer, unassigned) [Example 23a]: the IC50 in experiment [1] and in experiment [2] was 100 to 1000 nM in each case.
Consider `CCOC(=O)[C@H](OC[C@H]1O[C@@H](n2cnc3c(NCc4ccccc4)nc(Cl)nc32)[C@H](O)[C@@H]1O)P(=O)(O)O` (single isomer, unassigned) [Example 24], for which the IC50 in experiment [1] and in experiment [2] was under 100 nM in each case.
Take `CCOC(=O)[C@@H](OC[C@H]1O[C@@H](n2cnc3c(NCc4ccccc4)nc(Cl)nc32)[C@H](O)[C@@H]1O)P(=O)(O)O` (single isomer, unassigned) [Example 24a]: the IC50 in experiment [1] and in experiment [2] was 100 to 1000 nM in each case.
On to `CCOC(=O)[C@H](OC[C@H]1O[C@@H](n2cnc3c(NC4CCCC4)nc(Cl)nc32)[C@H](O)[C@@H]1O)P(=O)(O)O` (single isomer, unassigned) [Example 25], for which the IC50 in experiment [1] and in experiment [2] was under 100 nM in each case.
On to `CCOC(=O)[C@@H](OC[C@H]1O[C@@H](n2cnc3c(NC4CCCC4)nc(Cl)nc32)[C@H](O)[C@@H]1O)P(=O)(O)O` (single isomer, unassigned) [Example 25a], for which the IC50 in experiment [1] and in experiment [2] was under 100 nM throughout.
On to `CCOC(=O)[C@H](OC[C@H]1O[C@@H](n2cnc3c(-n4ccnc4)nc(Cl)nc32)[C@H](O)[C@@H]1O)P(=O)(O)O` (single isomer, unassigned) [Example 26], for which the IC50 in experiment [1] and in experiment [2] was under 100 nM in each case.
Regarding `CCOC(=O)[C@@H](OC[C@H]1O[C@@H](n2cnc3c(-n4ccnc4)nc(Cl)nc32)[C@H](O)[C@@H]1O)P(=O)(O)O` (single isomer, unassigned) [Example 26a], the IC50 in experiment [1] and in experiment [2] was 100 to 1000 nM throughout.
Take `CCOC(=O)[C@H](OC[C@H]1O[C@@H](n2cnc3c(OCC)nc(Cl)nc32)[C@H](O)[C@@H]1O)P(=O)(O)O` (single isomer, unassigned) [Example 27]: the IC50 in experiment [1] is under 100 nM; in experiment [2], 100 to 1000 nM.
Turning to `CCOC(=O)[C@@H](OC[C@H]1O[C@@H](n2cnc3c(OCC)nc(Cl)nc32)[C@H](O)[C@@H]1O)P(=O)(O)O` (single isomer, unassigned) [Example 27a], the IC50 in experiment [1] and in experiment [2] was 100 to 1000 nM throughout.
Regarding `CCOC(=O)[C@H](OC[C@H]1O[C@@H](n2cnc3c(C)nc(Cl)nc32)[C@H](O)[C@@H]1O)P(=O)(O)O` (single isomer, unassigned) [Example 28], the IC50 in experiment [1] and in experiment [2] was under 100 nM each time.
